Data from patent publication US8710074B2, “Dihydronaphthyridinyl(organo)methanone analogs as positive allosteric mGluR5 modulators” (Vanderbilt University, priority 2011, dated 2014).

Biological target: human mGluR5 (Homo sapiens, UniProt P41594)
Experiment: Cell-based functional assay: Ca2+ mobilization (FDSS), potentiation of glutamate EC20 response
Settings: HEK cells transfected with human mGluR5 (H10H or H12H cell line); positive allosteric modulation in presence of glutamate EC20
Procedure: Human embryonic kidney (HEK) cells transfected with rat mGluR5 were plated in clear bottom assay plates for assay in a Functional Drug Screening System (FDSS). In the alternative assay, HEK cells transfected with human mGluR5 were plated for assay in the FDSS. In some cases the HEK cells transfected with human mGluR5 were the H10H cell line. Alternatively, the HEK cells transfected with human mGluR5 were the H12H cell line. […] The cells were loaded with a Ca^2+-sensitive fluorescent dye (e.g., Fluo-4), and the plates were washed and placed in the FDSS instrument. After establishment of a fluorescence baseline for twelve seconds, the compounds of the present invention were added to the cells, and the response in cells was measured. Alternatively, in various further aspects, after establishment of a fluorescence baseline for about three seconds, the compounds of the present invention were added to the cells, and the response in cells was measured. Five minutes later, an mGluR5 agonist (e.g., glutamate, 3,5-dihydroxyphenylglycine, or quisqualate) was added to the cells, and the response of the cells was measured. Potentiation of the agonist response of mGluR5 by the compounds in the present invention was observed as an increase in response to non-maximal concentrations of agonist (here, glutamate) in the presence of compound compared to the response to agonist in the absence of compound.
The above described assay operated in two modes. In the first mode, a range of concentrations of the present compounds were added to cells, followed by a single fixed concentration of agonist. If a compound acted as a potentiator, an EC50 value for potentiation and a maximum extent of potentiation by the compound at this concentration of agonist was determined by non-linear curve fitting. In the second mode, several fixed concentrations of the present compounds were added to various wells on a plate, followed by a range of concentrations of agonist for each concentration of present compound; the EC50 values for the agonist at each concentration of compound were determined by non-linear curve fitting. A decrease in the EC50 value of the agonist with increasing concentrations of the present compounds (a leftward shift of the agonist concentration-response curve) is an indication of the degree of mGluR5 potentiation at a given concentration of the present compound. An increase in the EC50 value of the agonist with increasing concentrations of the present compounds (a rightward shift of the agonist concentration-response curve) is an indication of the degree of mGluR5 antagonism at a given concentration of the present compound. The second mode also indicates whether the present compounds also affect the maximum response to mGluR5 to agonists.
Table 1 below lists specific compounds as well as experimentally determined mGluR5 activity determined in a cell-based assay. The examples shown in Table I are provided so that the invention might be more fully understood, and these examples are illustrative only and should not be construed as limiting the invention in any way. The mGluR5 activity was determined using the metabotropic glutamate receptor activity assays in human embryonic kidney cells as described herein, wherein the human embryonic kidney cells were transfected with human mGluR5. The compounds in Table 1 were synthesized with methods identical or analogous to those shown herein. The column labeled “Rxn” and the data thereunder indicated in Table 1 refers to the Reaction Scheme number described above. The requisite starting materials were commercially available, described in the literature, or readily synthesized by one skilled in the art of organic synthesis. Compounds shown in Table I are depicted having a basic group or acidic group and named as the free base acid. […]

Sequence of human mGluR5 (P41594 21-1180 isoform P41594-2 limits assumed): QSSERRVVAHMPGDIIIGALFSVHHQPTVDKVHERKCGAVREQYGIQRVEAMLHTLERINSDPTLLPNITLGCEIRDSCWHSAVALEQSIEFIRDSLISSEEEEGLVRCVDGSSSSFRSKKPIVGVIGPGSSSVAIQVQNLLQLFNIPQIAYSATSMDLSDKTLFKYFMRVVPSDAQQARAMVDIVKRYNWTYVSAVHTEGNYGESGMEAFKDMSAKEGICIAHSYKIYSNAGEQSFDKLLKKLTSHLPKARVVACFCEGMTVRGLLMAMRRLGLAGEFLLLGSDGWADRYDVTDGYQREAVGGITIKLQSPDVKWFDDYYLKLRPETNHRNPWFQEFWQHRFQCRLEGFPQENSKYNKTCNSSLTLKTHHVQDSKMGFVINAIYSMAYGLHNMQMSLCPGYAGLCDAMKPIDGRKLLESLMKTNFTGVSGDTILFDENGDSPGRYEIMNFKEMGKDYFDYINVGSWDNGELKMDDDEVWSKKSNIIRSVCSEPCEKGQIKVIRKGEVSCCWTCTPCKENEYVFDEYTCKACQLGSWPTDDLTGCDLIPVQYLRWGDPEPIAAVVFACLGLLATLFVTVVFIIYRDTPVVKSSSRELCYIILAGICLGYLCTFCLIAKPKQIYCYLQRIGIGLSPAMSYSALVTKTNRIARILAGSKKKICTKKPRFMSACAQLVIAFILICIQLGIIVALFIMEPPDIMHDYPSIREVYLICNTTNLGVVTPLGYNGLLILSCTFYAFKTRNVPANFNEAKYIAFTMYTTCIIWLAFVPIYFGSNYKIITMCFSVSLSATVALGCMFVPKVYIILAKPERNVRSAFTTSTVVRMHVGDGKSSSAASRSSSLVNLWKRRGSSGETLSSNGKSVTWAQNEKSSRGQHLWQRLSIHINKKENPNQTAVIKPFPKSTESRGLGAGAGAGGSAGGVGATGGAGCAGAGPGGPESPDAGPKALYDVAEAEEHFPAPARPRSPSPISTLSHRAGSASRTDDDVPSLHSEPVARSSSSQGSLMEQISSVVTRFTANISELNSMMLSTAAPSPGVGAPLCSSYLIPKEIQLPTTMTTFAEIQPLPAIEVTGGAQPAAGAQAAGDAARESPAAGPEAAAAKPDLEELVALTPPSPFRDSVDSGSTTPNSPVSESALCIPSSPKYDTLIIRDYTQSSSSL

Compound	EC50
O=C(c1cccc(F)c1)N1CCc2ncc(OCc3cccc(F)c3)cc2C1 [Compound 5]	> 30000 nM
CC(C)(C)OC(=O)N1CCc2ncc(OCc3cccc(F)c3)cc2C1 [Compound 4]	> 30000 nM
O=C(c1ccc(F)cc1)N1CCc2ncc(COc3ccccc3)cc2C1 [Compound 1, (4-Fluorophenyl)(3-(phenoxymethyl)-7,8-dihydro-1,6-naphthyridin-6(5H)-yl)methanone]	380 nM
O=C(c1ccc(F)cc1)N1CCc2ncc(COc3ccc(F)cc3)cc2C1 [Compound 3, (3-((4-fluorophenoxy)methyl)-7,8-dihydro-1,6-naphthyridin-6(5H)-yl)(4-fluorophenyl)methanone]	910 nM
O=C(c1ccc(F)cc1)N1CCc2ncc(COc3cccc(F)c3)cc2C1 [Compound 2, (3-((3-fluorophenoxy)methyl)-7,8-dihydro-1,6-naphthyridin-6(5H)-yl) (4-fluorophenyl)methanone]	690 nM
O=C(C1CC1)N1CCc2ncc(OCc3cccc(F)c3)cc2C1 [Compound 6]	> 30000 nM
